# Where a name gives a salt, the structure may show the parent alone.
# Biological target: T1, Adrenergic β2 (Homo sapiens, UniProt P07550)
# T1 construct: Adherent H292 cells were removed from tissue culture flasks; endogenous in cells; host or cells: H292 cells
# Assay: Adrenergic β2 mediated cAMP production in H292 cells (AlphaScreen cAMP detection)
# Format: cell-based
# Design: key to β2 Int Act: fraction of formoterol maximum activity (formoterol = 1)
# Details: Intrinsic Activity as a fraction relative to the maximum activity determined for formoterol
# Experimental: Adrenergic β2 Mediated cAMP Production
# H292 cells were grown in 225 cm2 flasks incubator at 37° C., 5% CO2 in RPMI medium containing, 10% (v/v) FBS (foetal bovine serum) and 2 mM L-glutamine.
# Adherent H292 cells were removed from tissue culture flasks by treatment with Accutase™ cell detachment solution for 15 minutes. Flasks were incubated for 15 minutes in a humidified incubator at 37° C., 5% CO2. Detached cells were re-suspended in RPMI media (containing 10% (v/v) FBS and 2 mM L-glutamine) at 1×10^6 cells per mL. 10000 cells in 100 μL were added to each well of a tissue-culture-treated 96-well plate and the cells incubated overnight in a humidified incubator at 37° C., 5% CO2. The culture media was removed and cells were washed twice with 100 μL assay buffer and replaced with 50 μL assay buffer (HBSS solution containing 10 mM HEPES pH7.4 and 5 mM glucose). Cells were rested at room temperature for 20 minutes after which time 25 μL of rolipram (1.2 mM made up in assay buffer containing 2.4% (v/v) dimethylsulphoxide) was added. Cells were incubated with rolipram for 10 minutes after which time test compounds were added and the cells were incubated for 60 minutes at room temperature. The final rolipram concentration in the assay was 300 μM and final vehicle concentration was 1.6% (v/v) dimethylsulphoxide. The reaction was stopped by removing supernatants, washing once with 100 μL assay buffer and replacing with 50 μL lysis buffer. The cell monolayer was frozen at −80° C. for 30 minutes (or overnight).
# AlphaScreen™ cAMP Detection
# The concentration of cAMP (cyclic adenosine monophosphate) in the cell lysate was determined using AlphaScreen™ methodology. The frozen cell plate was thawed for 20 minutes on a plate shaker then 10 μL of the cell lysate was transferred to a 96-well white plate. 40 μL of mixed AlphaScreen™ detection beads pre-incubated with biotinylated cAMP, was added to each well and the plate incubated at room temperature for 10 hours in the dark. The AlphaScreen™ signal was measured using an EnVision spectrophotometer (Perkin-Elmer Inc.) with the recommended manufacturer's settings. cAMP concentrations were determined by reference to a calibration curve determined in the same experiment using standard cAMP concentrations. Concentration response curves for agonists were constructed and data was fitted to a four parameter logistic equation to determine both the pEC50 and Intrinsic Activity. Intrinsic Activity was expressed as a fraction relative to the maximum activity determined for formoterol in each experiment.
# T1 sequence (P07550 whole entry): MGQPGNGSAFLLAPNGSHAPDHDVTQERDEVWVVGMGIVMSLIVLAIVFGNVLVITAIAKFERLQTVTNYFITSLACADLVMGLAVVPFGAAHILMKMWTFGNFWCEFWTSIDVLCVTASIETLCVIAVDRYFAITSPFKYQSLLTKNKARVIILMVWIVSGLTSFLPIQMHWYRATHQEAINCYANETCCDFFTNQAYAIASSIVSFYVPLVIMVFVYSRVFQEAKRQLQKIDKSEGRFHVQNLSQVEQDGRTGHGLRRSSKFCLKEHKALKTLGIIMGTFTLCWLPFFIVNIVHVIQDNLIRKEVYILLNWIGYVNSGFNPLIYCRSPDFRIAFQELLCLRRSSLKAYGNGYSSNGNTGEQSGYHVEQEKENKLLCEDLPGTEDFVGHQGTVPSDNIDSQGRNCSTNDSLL
row,β2 Int Act,Structure (SMILES)
1,0.98,"O=C1COc2c(CCNCCN(C(=O)CCNCCc3cccc(Cl)c3F)C3CCCCC3)ccc(O)c2N1 [Example 39, 3-(3-Chloro-2-fluorophenethylamino)-N-cyclohexyl-N-(2-(2-(5-hydroxy-3-oxo-3,4-dihydro-2H-benzo[b][1,4]oxazin-8-yl)ethylamino)ethyl)propanamide bis(trifluoroacetate)]"
2,0.89,"CCCC[C@@H](C)N(CCNCCc1ccc(O)c2c1OCC(=O)N2)C(=O)CCNCCc1ccccc1Cl [Example 46, (R)-3-(2-Chlorophenethylamino)-N-(hexan-2-yl)-N-(2-(2-(5-hydroxy-3-oxo-3,4-dihydro-2H-benzo[b][1,4]oxazin-8-yl)ethylamino)ethyl)propanamide bis(trifluoroacetate)]"
3,0.88,"O=C1COc2c(CCNCCN(C(=O)CCNCCc3cc(F)ccc3F)C3CCCCCC3)ccc(O)c2N1 [Example 64, N-Cycloheptyl-3-(2,5-difluorophenethylamino)-N-(2-(2-(5-hydroxy-3-oxo-3,4-dihydro-2H-benzo[b][1,4]oxazin-8-yl)ethylamino)ethyl)propanamide bis(trifluoroacetate)]"
4,0.87,"CC(C)[C@@H](C)N(CCNCCc1ccc(O)c2c1OCC(=O)N2)C(=O)CCNCCc1ccc(Cl)c(Cl)c1 [Example 59, (R)-3-(3,4-Dichlorophenethylamino)-N-(2-(2-(5-hydroxy-3-oxo-3,4-dihydro-2H-benzo[b][1,4]oxazin-8-yl)ethylamino)ethyl)-N-(3-methylbutan-2-yl)propanamide dihydrochloride]"
5,0.91,"CCCC[C@@H](C)N(CCNCCc1ccc(O)c2c1OCC(=O)N2)C(=O)CCNCCc1ccc(F)c(Cl)c1 [Example 48, (R)-3-(3-Chloro-4-fluorophenethylamino)-N-(hexan-2-yl)-N-(2-(2-(5-hydroxy-3-oxo-3,4-dihydro-2H-benzo[b][1,4]oxazin-8-yl)ethylamino)ethyl)propanamide bis(trifluoroacetate)]"
6,0.89,"CCCC[C@@H](C)N(CCNCCc1ccc(O)c2c1OCC(=O)N2)C(=O)CCNCCc1ccc(Cl)cc1 [Example 45, (R)-3-(4-Chlorophenethylamino)-N-(hexan-2-yl)-N-(2-(2-(5-hydroxy-3-oxo-3,4-dihydro-2H-benzo[b][1,4]oxazin-8-yl)ethylamino)ethyl)propanamide bis(trifluoroacetate)]"
7,0.88,"O=C1COc2c(CCNCCN(C(=O)CCNCCc3cccc(F)c3)C3CCCCCC3)ccc(O)c2N1 [Example 69, N-Cycloheptyl-3-(3-fluorophenethylamino)-N-(2-(2-(5-hydroxy-3-oxo-3,4-dihydro-2H-benzo[b][1,4]oxazin-8-yl)ethylamino)ethyl)propanamide bis(trifluoroacetate)]"
8,0.89,"CCCC[C@@H](C)N(CCNCCc1ccc(O)c2c1OCC(=O)N2)C(=O)CCNCCc1ccc(F)c(C)c1 [Example 47, (R)-3-(4-Fluoro-3-methylphenethylamino)-N-(hexan-2-yl)-N-(2-(2-(5-hydroxy-3-oxo-3,4-dihydro-2H-benzo[b][1,4]oxazin-8-yl)ethylamino)ethyl)propanamide bis(trifluoroacetate)]"
9,0.85,"Cl.O=C(CCOCCc1ccc(F)cc1)N(CCNCCc1ccc(O)c2[nH]c(=O)ccc12)C1CCCCC1 [Example 71, N-Cyclohexyl-3-(4-fluorophenethoxy)-N-(2-(2-(8-hydroxy-2-oxo-1,2-dihydroquinolin-5-yl)ethylamino)ethyl)propanamide hydrochloride]"
10,0.92,"Cl.O=C(CCOCCc1cccc(F)c1)N(CCNCCc1ccc(O)c2[nH]c(=O)ccc12)C1CCCCC1 [Example 72, N-Cyclohexyl-3-(3-fluorophenethoxy)-N-(2-(2-(8-hydroxy-2-oxo-1,2-dihydroquinolin-5-yl)ethylamino)ethyl)propanamide hydrochloride]"
11,0.97,"O=C1COc2c(CCNCCN(C(=O)CCOCCc3ccccc3)C3CCCCC3)ccc(O)c2N1 [Example 70, N-Cyclohexyl-N-(2-(2-(5-hydroxy-3-oxo-3,4-dihydro-2H-benzo[b][1,4]oxazin-8-yl)ethylamino)ethyl)-3-phenethoxypropanamide trifluoroacetate]"

# Further lines, the compound ahead of its results:
row,Structure (SMILES),β2 Int Act
1,"O=C(CCNCCc1ccc(Cl)cc1)N(CCNCCc1ccc(O)c2[nH]c(=O)ccc12)C1CCCCCC1 [Example 4, 3-(4-Chlorophenethylamino)-N-cycloheptyl-N-(2-(2-(8-hydroxy-2-oxo-1,2-dihydroquinolin-5-yl)ethylamino)ethyl)propanamide bis(trifluoroacetate)]",0.79
2,"O=C(CCNCCc1cccc(F)c1)N(CCNCCc1ccc(O)c2[nH]c(=O)ccc12)C1CCCCC1 [Example 19, N-Cyclohexyl-3-(3-fluorophenethylamino)-N-(2-(2-(8-hydroxy-2-oxo-1,2-dihydroquinolin-5-yl)ethylamino)ethyl)propanamide]",0.87
3,"Cc1ccc(F)c(CCNCCC(=O)N(CCNCCc2ccc(O)c3c2OCC(=O)N3)C2CCCCC2)c1 [Example 33, N-Cyclohexyl-3-(2-fluoro-5-methylphenethylamino)-N-(2-(2-(5-hydroxy-3-oxo-3,4-dihydro-2H-benzo[b][1,4]oxazin-8-yl)ethylamino)ethyl)propanamide bis(trifluoroacetate)]",0.9
4,"O=C(CCNCCc1ccccc1)N(CCNCCc1ccc(O)c2[nH]c(=O)ccc12)C1CCCCCC1 [Example 7, N-Cycloheptyl-N-(2-(2-(8-hydroxy-2-oxo-1,2-dihydroquinolin-5-yl)ethylamino)ethyl)-3-(phenethylamino)propanamide bis(trifluoroacetate)]",0.76
5,"O=C(CCNCCc1cc(F)ccc1F)N(CCNCCc1ccc(O)c2[nH]c(=O)ccc12)C1CCCCC1 [Example 17, N-Cyclohexyl-3-(2,5-difluorophenethylamino)-N-(2-(2-(8-hydroxy-2-oxo-1,2-dihydroquinolin-5-yl)ethylamino)ethyl)propanamide bis(trifluoroacetate)]",0.93
6,"O=C1COc2c(CCNCCN(C(=O)CCNCCc3ccc(F)c(Cl)c3)C3CCCCC3)ccc(O)c2N1 [Example 37, 3-(3-Chloro-4-fluorophenethylamino)-N-cyclohexyl-N-(2-(2-(5-hydroxy-3-oxo-3,4-dihydro-2H-benzo[b][1,4]oxazin-8-yl)ethylamino)ethyl)propanamide bis(trifluoroacetate)]",0.89
7,"O=C(CCOCCc1ccccc1)N(CCNCCc1ccc(O)c2[nH]c(=O)ccc12)C1CCCCC1 [Example 2, N-Cyclohexyl-N-(2-(2-(8-hydroxy-2-oxo-1,2-dihydroquinolin-5-yl)ethylamino)ethyl)-3-phenethoxypropanamide]",0.93
8,"O=C1COc2c(CCNCCN(C(=O)CCNCCc3ccccc3)C3CCCCC3)ccc(O)c2N1 [Example 23, N-Cyclohexyl-N-(2-(2-(5-hydroxy-3-oxo-3,4-dihydro-2H-benzo[b][1,4]oxazin-8-yl)ethylamino)ethyl)-3-(phenethylamino)propanamide bis(trifluoroacetate)]",0.79
9,"O=C1COc2c(CCNCCN(C(=O)CCNCCc3cccc(F)c3F)C3CCCCC3)ccc(O)c2N1 [Example 36, N-Cyclohexyl-3-(2,3-difluorophenethylamino)-N-(2-(2-(5-hydroxy-3-oxo-3,4-dihydro-2H-benzo[b][1,4]oxazin-8-yl)ethylamino)ethyl)propanamide bis(trifluoroacetate)]",0.91
10,"O=C(CCNCCc1cccc(F)c1)N(CCNCCc1ccc(O)c2[nH]c(=O)ccc12)C1CCCCCC1 [Example 5, N-Cycloheptyl-3-(3-fluorophenethylamino)-N-(2-(2-(8-hydroxy-2-oxo-1,2-dihydroquinolin-5-yl)ethylamino)ethyl)propanamide bis(trifluoroacetate)]",0.82
11,"O=C(CCNCCc1cc(F)cc(F)c1)N(CCNCCc1ccc(O)c2[nH]c(=O)ccc12)C1CCCCCC1 [Example 10, N-Cycloheptyl-3-(3,5-difluorophenethylamino)-N-(2-(2-(8-hydroxy-2-oxo-1,2-dihydroquinolin-5-yl)ethylamino)ethyl)propanamide bis(trifluoroacetate)]",0.85
12,"O=C(CCNCCc1cccc(-c2ccccc2)c1)N(CCNCCc1ccc(O)c2[nH]c(=O)ccc12)C1CCCCCC1 [Example 12, 3-(2-(Biphenyl-3-yl)ethylamino)-N-cycloheptyl-N-(2-(2-(8-hydroxy-2-oxo-1,2-dihydroquinolin-5-yl)ethylamino)ethyl)propanamide bis(trifluoroacetate)]",0.67
